Source: PubChem BioAssay AID330 (DTP/NCI, 2004)
Where “and” joins values, the source holds several entries; their conditions need not be identical. Identical values can stand only once. Toxic doses and inconclusive results are not listed. The calls were made as follows: active = survival T/C of 150% or more; inactive = T/C below 125% in these data.

Tested on: P388 leukemia ip, CD2F1 mice, survival T/C
Test: NCI In Vivo Anticancer Drug Screen. Data for tumor model P388 Leukemia (intraperitoneal) in CD2F1 (CDF1) mice
Settings: endpoint: median survival time, higher = longer survival
Method in brief: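 Mice carrying the transplanted tumor received test compound or vehicle. Survival was recorded in each group, and the value is the treated-group measurement divided by that of the vehicle-treated control group.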

[1] = dose: 60.0 mg/kg/injection, schedule: Q01DX005 (ip), vehicle: Klucel (hydroxypropylcellulose) (HPC)
[2] = dose: 120.0 mg/kg/injection, schedule: Q01DX005 (ip), vehicle: Klucel (hydroxypropylcellulose) (HPC)
[3] = dose: 60.0 mg/kg/injection, schedule: Q01DX005 (ip), vehicle: saline with Tween-80
[4] = dose: 120.0 mg/kg/injection, schedule: Q01DX005 (ip), vehicle: saline with Tween-80
[5] = dose: 240.0 mg/kg/injection, schedule: Q01DX005 (ip), vehicle: saline with Tween-80
[6] = dose: 100.0 mg/kg/injection, schedule: Q01DX001 (ip), vehicle: saline with Tween-80
[7] = dose: 50.0 mg/kg/injection, schedule: Q04DX002 (ip), vehicle: saline
[8] = dose: 100.0 mg/kg/injection, schedule: Q04DX002 (ip), vehicle: saline with Tween-80
[9] = dose: 50.0 mg/kg/injection, schedule: Q01DX009 (ip), vehicle: saline with Tween-80
[10] = dose: 100.0 mg/kg/injection, schedule: Q01DX009 (ip), vehicle: saline with Tween-80
[11] = dose: 50.0 mg/kg/injection, schedule: Q01DX005 (ip), vehicle: saline with Tween-80
[12] = dose: 100.0 mg/kg/injection, schedule: Q01DX005 (ip), vehicle: saline with Tween-80
[13] = dose: 200.0 mg/kg/injection, schedule: Q01DX005 (ip), vehicle: saline with Tween-80
[14] = dose: 12.5 mg/kg/injection, schedule: Q01DX009 (ip), vehicle: Klucel (hydroxypropylcellulose) (HPC)
[15] = dose: 25.0 mg/kg/injection, schedule: Q01DX009 (ip), vehicle: Klucel (hydroxypropylcellulose) (HPC)
[16] = dose: 50.0 mg/kg/injection, schedule: Q01DX009 (ip), vehicle: Klucel (hydroxypropylcellulose) (HPC)
[17] = dose: 100.0 mg/kg/injection, schedule: Q01DX009 (ip), vehicle: Klucel (hydroxypropylcellulose) (HPC)

Measured: T/C

CCCCc1c(C)[nH]n(C(N)=NCCSCc2nc[nH]c2C)c1=O
inactive: [1] 100 % of control | [2] 99 % of control | dose: 240.0 mg/kg/injection, schedule: Q01DX005 (ip), vehicle: Klucel (hydroxypropylcellulose) (HPC) 100 % of control

O=[N+]([O-])c1c(N2CCN(CCO)CC2)ccc2nonc12
inactive: dose: 50.0 mg/kg/injection, schedule: Q01DX009 (ip), vehicle: suspension in saline 100 % of control | dose: 100.0 mg/kg/injection, schedule: Q01DX009 (ip), vehicle: suspension in saline 108 % of control

O=c1c2ccccc2c2nccn2c2ccccc12
inactive: [3] 90 % of control | [4] 90 % of control | [5] 96 % of control

Cc1c(C)c2c(N)c3ccccc3nc2c2ccccc12
inactive: dose: 12.5 mg/kg/injection, schedule: Q01DX001 (ip), vehicle: saline with Tween-80 101 % of control | dose: 25.0 mg/kg/injection, schedule: Q01DX001 (ip), vehicle: saline with Tween-80 100 % of control | dose: 50.0 mg/kg/injection, schedule: Q01DX001 (ip), vehicle: saline with Tween-80 115 % of control | [6] 111 % of control

Cc1nc(N)[nH]c(=O)c1CCCCC#N
inactive: [1] 104 % of control | [2] 104 % of control

COc1ccc(-c2coc3cc(O)ccc3c2=O)c(O)c1OC
inactive: dose: 100.0 mg/kg/injection, schedule: Q04DX003 (ip), vehicle: Klucel (hydroxypropylcellulose) (HPC) 97 % of control | dose: 200.0 mg/kg/injection, schedule: Q04DX003 (ip), vehicle: Klucel (hydroxypropylcellulose) (HPC) 101 % of control | dose: 400.0 mg/kg/injection, schedule: Q04DX003 (ip), vehicle: Klucel (hydroxypropylcellulose) (HPC) 99 % of control

CCC(C)CN1CCc2c(c3c(c(OC)c2OC)CCC3)C1 (configuration not stated)
inactive: [7] 101 % of control | dose: 100.0 mg/kg/injection, schedule: Q04DX002 (ip), vehicle: saline 102 % of control | dose: 200.0 mg/kg/injection, schedule: Q04DX002 (ip), vehicle: saline 96 % of control

O=C1c2ccccc2-c2cccc3ccnc1c23
inactive: dose: 8.0 mg/kg/injection, schedule: Q01DX009 (ip), vehicle: Klucel (hydroxypropylcellulose) (HPC) 103 % of control | dose: 16.0 mg/kg/injection, schedule: Q01DX009 (ip), vehicle: Klucel (hydroxypropylcellulose) (HPC) 101 % of control | dose: 32.0 mg/kg/injection, schedule: Q01DX009 (ip), vehicle: Klucel (hydroxypropylcellulose) (HPC) 103 % of control | dose: 64.0 mg/kg/injection, schedule: Q01DX009 (ip), vehicle: Klucel (hydroxypropylcellulose) (HPC) 100 % of control

O=[N+]([O-])c1cc([N+](=O)[O-])c2ccc(S(=O)(=O)O)cc2c1O
inactive: dose: 12.5 mg/kg/injection, schedule: Q04DX002 (ip), vehicle: saline 100 % of control | dose: 15.0 mg/kg/injection, schedule: Q01DX005 (ip), vehicle: saline 105 % of control | dose: 30.0 mg/kg/injection, schedule: Q01DX005 (ip), vehicle: saline 99 % of control | [7] 93 % of control | dose: 60.0 mg/kg/injection, schedule: Q01DX005 (ip), vehicle: saline 100 % of control and 97 % of control | [6] 102 % of control | [8] 98 % of control | dose: 200.0 mg/kg/injection, schedule: Q01DX001 (ip), vehicle: saline with Tween-80 96 % of control

COc1cccc(CSC(C(=O)O)c2ccccc2)c1 (configuration not stated)
inactive: [9] 107 % of control | [10] 101 % of control | dose: 200.0 mg/kg/injection, schedule: Q01DX009 (ip), vehicle: saline with Tween-80 117 % of control

Cc1nnc(NC(=O)CCl)s1
inactive: dose: 25.0 mg/kg/injection, schedule: Q01DX009 (ip), vehicle: saline with Tween-80 95 % of control | [9] 100 % of control | [10] 104 % of control

CCOC(=O)C1CCC(=O)C(CC)=C1C (configuration not stated)
inactive: [11] 103 % of control | [12] 103 % of control | [13] 107 % of control

C[As](C)SCCC(CCCCC(=O)O)S[As](C)C (configuration not stated)
inactive: [14] 109 % of control and 111 % of control | [15] 122 % of control | dose: 25.0 mg/kg/injection, schedule: Q04DX003 (ip), vehicle: saline with Tween-80 106 % of control | [16] 100 % of control | dose: 50.0 mg/kg/injection, schedule: Q04DX003 (ip), vehicle: saline with Tween-80 97 % of control | dose: 100.0 mg/kg/injection, schedule: Q04DX003 (ip), vehicle: saline with Tween-80 108 % of control

CONC(=O)N/N=C/c1c(CO)cnc(C)c1O
inactive: dose: 12.5 mg/kg/injection, schedule: Q01DX005 (ip), vehicle: Klucel (hydroxypropylcellulose) (HPC) 104 % of control | dose: 25.0 mg/kg/injection, schedule: Q01DX005 (ip), vehicle: Klucel (hydroxypropylcellulose) (HPC) 100 % of control | dose: 50.0 mg/kg/injection, schedule: Q01DX005 (ip), vehicle: Klucel (hydroxypropylcellulose) (HPC) 94 % of control

Cc1ncc(C)c2c([N+](=O)[O-])cccc12
inactive: [16] 106 % of control | [17] 110 % of control | dose: 200.0 mg/kg/injection, schedule: Q01DX009 (ip), vehicle: Klucel (hydroxypropylcellulose) (HPC) 96 % of control

O=S1(=O)N=C(Sc2nc3ccccc3s2)c2ccccc21
inactive: [11] 102 % of control | [12] 107 % of control | [13] 117 % of control

ClC(Cl)(Cl)C1[O][Sb]([c]2ccccc2)([c]2ccccc2)([c]2ccccc2)[O]1 (configuration not stated)
inactive: [16] 90 % of control | [17] 101 % of control

O=c1nc(-c2ccccc2)nc(-c2ccccc2)[nH]1
inactive: [8] 93 % of control | dose: 200.0 mg/kg/injection, schedule: Q04DX002 (ip), vehicle: saline with Tween-80 89 % of control | dose: 400.0 mg/kg/injection, schedule: Q04DX002 (ip), vehicle: saline with Tween-80 108 % of control

CCN(CC)CCCC(C)n1c2nc(=O)[nH]c(=O)c-2nc2ccc(Cl)cc21 (configuration not stated)
inactive: dose: 6.25 mg/kg/injection, schedule: Q01DX005 (ip), vehicle: saline 100 % of control | dose: 12.5 mg/kg/injection, schedule: Q01DX005 (ip), vehicle: saline 107 % of control | dose: 25.0 mg/kg/injection, schedule: Q01DX005 (ip), vehicle: saline 112 % of control

COCCOC(=O)Nc1c(Cl)cccc1Cl
inactive: [3] 98 % of control | [4] 100 % of control | [5] 100 % of control

c1ccc([I+]c2ccccc2)cc1
inactive: dose: 0.65 mg/kg/injection, schedule: Q01DX009 (ip), vehicle: saline 95 % of control | dose: 1.25 mg/kg/injection, schedule: Q01DX009 (ip), vehicle: saline sonified 100 % of control | dose: 1.3 mg/kg/injection, schedule: Q01DX009 (ip), vehicle: saline 90 % of control | dose: 1.56 mg/kg/injection, schedule: Q01DX009 (ip), vehicle: saline with Tween-80 103 % of control | dose: 2.5 mg/kg/injection, schedule: Q01DX009 (ip), vehicle: saline sonified 118 % of control | dose: 2.5 mg/kg/injection, schedule: Q01DX009 (ip), vehicle: saline 109 % of control | dose: 2.6 mg/kg/injection, schedule: Q01DX009 (ip), vehicle: saline with Tween-80 106 % of control | dose: 3.13 mg/kg/injection, schedule: Q01DX009 (ip), vehicle: saline sonified 100 % of control | dose: 3.13 mg/kg/injection, schedule: Q01DX009 (ip), vehicle: saline with Tween-80 108 % of control | dose: 3.13 mg/kg/injection, schedule: Q04DX003 (ip), vehicle: saline 100 % of control | dose: 4.0 mg/kg/injection, schedule: Q01DX009 (ip), vehicle: saline with Tween-80 113 % of control | dose: 6.0 mg/kg/injection, schedule: Q01DX009 (ip), vehicle: saline with Tween-80 113 % of control | dose: 6.25 mg/kg/injection, schedule: Q01DX009 (ip), vehicle: saline with Tween-80 122 % of control and 91 % of control | dose: 6.25 mg/kg/injection, schedule: Q04DX003 (ip), vehicle: saline 118 % of control | dose: 12.5 mg/kg/injection, schedule: Q04DX003 (ip), vehicle: saline 118 % of control

[I][Hg][CH]1CCC2CCCC1O2 (configuration not stated)
inactive: [14] 105 % of control | [15] 102 % of control

CC(=O)/C=C1/NC(C(=O)c2ccccc2)=CNC1c1ccccc1 (configuration not stated)
inactive: [3] 102 % of control | [4] 91 % of control | [5] 95 % of control
